Source: patent EP0326418A1, “GRF analogs” (THE UPJOHN COMPANY, priority 1988, dated 1989)
Where two headings read alike, the source gives them in different places. Where a SMILES comes first, the peptide text is derived from it. Where no end group is shown, it is not given here. [ ]: non-standard residue; d: D form. The star is where a group is joined. Desaminotyrosyl = O=C(CCc1ccc(O)cc1)*; Cya = N[C@@H](CS(=O)(=O)O)C(=O)O; X1 = O=C(Cc1ccc(O)cc1)*

Experiments:
[1] = system: bovine anterior pituitary cell culture; format: cell-based; conditions: for potency (in words): summary of the bovine pituitary cell culture assays
[2] = proteolytic stability in bovine plasma (HPLC, modified Frohman method); conditions: for remaining at 1 h: bovine plasma; for proteolytic stability in bovine plasma (in words): summary
meal-fed Holstein steers = test: serum growth hormone (GH) response after intravenous injection in steers (Procedure B); format: in vivo; conditions: for serum growth hormone (GH) response, difference from Leu²⁷ bGRF(1-32)NH₂: compared with Leu²⁷ bGRF(1-32)NH₂; for area under the GH response curve: in comparison to bGRF(1-44)NH₂ (100%), first study; for relative growth hormone areas: in comparison to the standard bGRF(1-44)NH₂ (Area 100%), procedure B, second study
Description: The synthetic peptides prepared in Examples 1, 2 and 3 (Compounds 1, 2 and 3 respectively), bGRF(1-44)NH2 and […] bGRF(1-32)NH2 were also given to meal-fed Holstein steers by intravenous injection (Procedure B) and the serum growth hormone (GH) response evaluated. […] In comparison to bGRF(1-44)NH2 (100%), the area under the GH response curve was 122% for […] bGRF(1-32)NH2, 100% for Compound #1, 106% for Compound #2, and 111% for Compound #3. Holstein steers (265 +/- 5kg) were housed in individual stalls 18-20°C) and exposed to 16h light:8h darkness (lights on at 0400h). Steers are meal-fed once daily at 1000h and trained to consume their total daily feed intake in 2 h. The diet consisted of rolled corn plus a mineral/vitamin premix and alfalfa hay cubes fed at 160% maintenance energy requirements on a bodyweight basis. Steers gained approximately 0.75 kg/h/d. In a 5 x […] Latin Square design 10 steers were assigned randomly to receive the following treatments. (a) bGRF(1-44)NH2, (b) […] bGRF(1-32)NH2, (c) Compound #3, (d) Compound #1, and (e) Compound #2. The GRFs were dissolves in saline (10μg/ml) and administered at 3nM/100 kg bodyweight as single iv injection at 0800 h, 2 h between feeding. A cannula was inserted into a jugular vein at least one day before treatment. Blood (6 ml) was collected at 20-min interval from 40 min before until 120 min after injection with additional samples collected at 5, 10 and 15 min after injection. Serum obtained from the samples was assayed from GH concentration. The number of steers responding to injection fo the various GRFs tested (P=0.42) ranged from 9 of 10 to 10 of 10 depending on the treatment. Using procedure B, compounds were tested for growth hormone release in steers. In comparison to the standard bGRF(1-44)NH2 (Area 100%), the test compounds gave the following relative growth hormone areas: Compound 4, 233%; compound 5, 140%; compound 6, 160%; compound 7, 126%; compound 8, 307%; compound 9, 260%; and compound 11, 173%.

[3] = first assay, potency as a fraction of bGRF(1-44)NH₂
[4] = subsequent assay, potency as a fraction of bGRF(1-44)NH₂
[5] = 3nM/100 kg bodyweight, single iv injection

remaining at 1 h [2]	Compound	area under the GH response curve (meal-fed Holstein steers; [5])	the potency of bGRF(1-44)NH₂ [1]	relative growth hormone areas (meal-fed Holstein steers)	also measured
42%	CC[C@H](C)[C@H](NC(=O)[C@H](C)NC(=O)[C@H](CS(=O)(=O)O)NC(=O)[C@H](C)NC(=O)[C@@H](N)Cc1ccc(O)cc1)C(=O)N[C@@H](Cc1ccccc1)C(=O)N[C@H](C(=O)N[C@@H](CC(N)=O)C(=O)N[C@@H](CO)C(=O)N[C@@H](Cc1ccc(O)cc1)C(=O)N[C@@H](CCCNC(=N)N)C(=O)N[C@@H](CCCCN)C(=O)N[C@H](C(=O)N[C@@H](CC(C)C)C(=O)NCC(=O)N[C@@H](CCC(N)=O)C(=O)N[C@@H](CC(C)C)C(=O)N[C@@H](CO)C(=O)N[C@@H](C)C(=O)N[C@@H](CCCNC(=N)N)C(=O)N[C@@H](CCCCN)C(=O)N[C@@H](CC(C)C)C(=O)N[C@@H](CC(C)C)C(=O)N[C@@H](CCC(N)=O)C(=O)N[C@@H](CC(=O)O)C(=O)N[C@H](C(=O)N[C@@H](CC(C)C)C(=O)N[C@@H](CC(N)=O)C(=O)N[C@@H](CCCNC(=N)N)C(=O)N[C@@H](CCC(N)=O)C(=O)N[C@@H](CCC(N)=O)C(=O)NCC(N)=O)[C@@H](C)CC)C(C)C)[C@@H](C)O [Compound 3, Cya³, Leu ²⁷bGRF(1-32)NH₂] (H-YA[Cya]AIFTNSYRKVLGQLSARKLLQDILNRQQG-NH2)	111%	–	–	the potency of bGRF(1-44)NH₂ [1, 3]: 0.31; the potency of bGRF(1-44)NH₂ [1, 4]: 0.41; serum growth hormone (GH) response, difference from Leu²⁷ bGRF(1-32)NH₂ (meal-fed Holstein steers; [5]): No significant differences
76%	CC[C@H](C)[C@H](NC(=O)[C@H](C)NC(=O)[C@H](CS(=O)(=O)O)NC(=O)[C@@H](C)NC(=O)[C@@H](N)Cc1ccc(O)cc1)C(=O)N[C@@H](Cc1ccccc1)C(=O)N[C@H](C(=O)N[C@@H](CC(N)=O)C(=O)N[C@@H](CO)C(=O)N[C@@H](Cc1ccc(O)cc1)C(=O)N[C@@H](CCCNC(=N)N)C(=O)N[C@@H](CCCCN)C(=O)N[C@H](C(=O)N[C@@H](CC(C)C)C(=O)NCC(=O)N[C@@H](CCC(N)=O)C(=O)N[C@@H](CC(C)C)C(=O)N[C@@H](CO)C(=O)N[C@@H](C)C(=O)N[C@@H](CCCNC(=N)N)C(=O)N[C@@H](CCCCN)C(=O)N[C@@H](CC(C)C)C(=O)N[C@@H](CC(C)C)C(=O)N[C@@H](CCC(N)=O)C(=O)N[C@@H](CC(=O)O)C(=O)N[C@H](C(=O)N[C@@H](CC(C)C)C(=O)N[C@@H](CC(N)=O)C(=O)N[C@@H](CCCNC(=N)N)C(=O)N[C@@H](CCC(N)=O)C(=O)N[C@@H](CCC(N)=O)C(=O)NCC(N)=O)[C@@H](C)CC)C(C)C)[C@@H](C)O [Compound 4, D-Ala², Cya³, Leu²⁷-bGRF(1-32)NH₂] (H-Y[dA][Cya]AIFTNSYRKVLGQLSARKLLQDILNRQQG-NH2)	–	0.29	233%	–
69%	CC[C@H](C)[C@H](NC(=O)[C@H](C)NC(=O)[C@H](CS(=O)(=O)O)NC(=O)[C@@H](C)NC(=O)[C@@H](N)Cc1c[nH]cn1)C(=O)N[C@@H](Cc1ccccc1)C(=O)N[C@H](C(=O)N[C@@H](CC(N)=O)C(=O)N[C@@H](CO)C(=O)N[C@@H](Cc1ccc(O)cc1)C(=O)N[C@@H](CCCNC(=N)N)C(=O)N[C@@H](CCCCN)C(=O)N[C@H](C(=O)N[C@@H](CC(C)C)C(=O)NCC(=O)N[C@@H](CCC(N)=O)C(=O)N[C@@H](CC(C)C)C(=O)N[C@@H](CO)C(=O)N[C@@H](C)C(=O)N[C@@H](CCCNC(=N)N)C(=O)N[C@@H](CCCCN)C(=O)N[C@@H](CC(C)C)C(=O)N[C@@H](CC(C)C)C(=O)N[C@@H](CCC(N)=O)C(=O)N[C@@H](CC(=O)O)C(=O)N[C@H](C(=O)N[C@@H](CC(C)C)C(=O)N[C@@H](CC(N)=O)C(=O)N[C@@H](CCCNC(=N)N)C(=O)N[C@@H](CCC(N)=O)C(=O)N[C@@H](CCC(N)=O)C(=O)NCC(N)=O)[C@@H](C)CC)C(C)C)[C@@H](C)O [Compound 7, His¹, D-Ala², Cya³, Leu²⁷-bGRF(1-32)NH₂] (H-H[dA][Cya]AIFTNSYRKVLGQLSARKLLQDILNRQQG-NH2)	–	0.06	126%	–
95%	CC[C@H](C)[C@H](NC(=O)[C@H](C)NC(=O)[C@H](CS(=O)(=O)O)NC(=O)[C@@H](C)NC(=O)[C@@H](N)Cc1ccc(O)cc1)C(=O)N[C@@H](Cc1ccccc1)C(=O)N[C@H](C(=O)N[C@@H](CC(N)=O)C(=O)N[C@@H](CO)C(=O)N[C@@H](Cc1ccc(O)cc1)C(=O)N[C@@H](CCCNC(=N)N)C(=O)N[C@@H](CCCCN)C(=O)N[C@H](C(=O)N[C@@H](CC(C)C)C(=O)N[C@@H](C)C(=O)N[C@@H](CCC(N)=O)C(=O)N[C@@H](CC(C)C)C(=O)N[C@@H](CO)C(=O)N[C@@H](C)C(=O)N[C@@H](CCCNC(=N)N)C(=O)N[C@@H](CCCCN)C(=O)N[C@@H](CC(C)C)C(=O)N[C@@H](CC(C)C)C(=O)N[C@@H](CCC(N)=O)C(=O)N[C@@H](CC(=O)O)C(=O)N[C@H](C(=O)N[C@@H](CC(C)C)C(=O)N[C@@H](CC(N)=O)C(=O)N[C@@H](CCCNC(=N)N)C(=O)N[C@@H](CCC(N)=O)C(=O)N[C@@H](CCC(N)=O)C(=O)NCC(N)=O)[C@@H](C)CC)C(C)C)[C@@H](C)O [Compound 8, D-Ala², Cya³, Ala¹⁵, Leu²⁷-bGRF(1-32)NH₂] (H-Y[dA][Cya]AIFTNSYRKVLAQLSARKLLQDILNRQQG-NH2)	–	1.34	307%	potency (in words) [1]: high potency; proteolytic stability in bovine plasma (in words) [2]: good stability
81%	CC[C@H](C)[C@H](NC(=O)[C@H](C)NC(=O)[C@H](CS(=O)(=O)O)NC(=O)[C@H](C)NC(=O)CCc1ccc(O)cc1)C(=O)N[C@@H](Cc1ccccc1)C(=O)N[C@H](C(=O)N[C@@H](CC(N)=O)C(=O)N[C@@H](CO)C(=O)N[C@@H](Cc1ccc(O)cc1)C(=O)N[C@@H](CCCNC(=N)N)C(=O)N[C@@H](CCCCN)C(=O)N[C@H](C(=O)N[C@@H](CC(C)C)C(=O)N[C@@H](C)C(=O)N[C@@H](CCC(N)=O)C(=O)N[C@@H](CC(C)C)C(=O)N[C@@H](CO)C(=O)N[C@@H](C)C(=O)N[C@@H](CCCNC(=N)N)C(=O)N[C@@H](CCCCN)C(=O)N[C@@H](CC(C)C)C(=O)N[C@@H](CC(C)C)C(=O)N[C@@H](CCC(N)=O)C(=O)N[C@@H](CC(=O)O)C(=O)N[C@H](C(=O)N[C@@H](CC(C)C)C(=O)N[C@@H](CC(N)=O)C(=O)N[C@@H](CCCNC(=N)N)C(=O)N[C@@H](CCC(N)=O)C(=O)N[C@@H](CCC(N)=O)C(=O)NCC(N)=O)[C@@H](C)CC)C(C)C)[C@@H](C)O [Compound 9, Desamino-Tyr¹, Cya³, Ala¹⁵, Leu²⁷-bGRF(1-32)NH₂] (Desaminotyrosyl-A[Cya]AIFTNSYRKVLAQLSARKLLQDILNRQQG-NH2)	–	–	260%	the potency of bGRF(1-44)NH₂ [1, 4]: 2.24; potency (in words) [1]: high potency; proteolytic stability in bovine plasma (in words) [2]: good stability
65%	CC[C@H](C)[C@H](NC(=O)[C@H](C)NC(=O)[C@H](CC(=O)O)NC(=O)[C@H](C)NC(=O)Cc1ccc(O)cc1)C(=O)N[C@@H](Cc1ccccc1)C(=O)N[C@H](C(=O)N[C@@H](CO)C(=O)N[C@@H](CO)C(=O)N[C@@H](Cc1ccc(O)cc1)C(=O)N[C@@H](CCCNC(=N)N)C(=O)N[C@@H](CCCNC(=N)N)C(=O)N[C@H](C(=O)N[C@@H](CC(C)C)C(=O)N[C@@H](C)C(=O)N[C@@H](CCC(N)=O)C(=O)N[C@@H](CC(C)C)C(=O)N[C@@H](CO)C(=O)N[C@@H](C)C(=O)N[C@@H](CCCNC(=N)N)C(=O)N[C@@H](CCCNC(=N)N)C(=O)N[C@@H](CC(C)C)C(=O)N[C@@H](CC(C)C)C(=O)N[C@@H](CCC(N)=O)C(=O)N[C@@H](CS(=O)(=O)O)C(=O)N[C@H](C(=O)N[C@@H](CC(C)C)C(=O)N[C@@H](CO)C(=O)N[C@@H](CCCNC(=N)N)C(=O)N[C@@H](CCC(N)=O)C(=O)N[C@@H](CCC(N)=O)C(=O)NCC(N)=O)[C@@H](C)CC)C(C)C)[C@@H](C)O [Compound 15, Desamino PHPG¹, Ser⁸, Arg¹², Ala¹⁵, Cya²⁵, Leu²⁷, Ser²⁸, bGRF(1-32)NH₂] (X1-ADAIFTSSYRRVLAQLSARRLLQ[Cya]ILSRQQG-NH2)	–	–	–	the potency of bGRF(1-44)NH₂ ([1]; another assay, potency as a fraction of bGRF(1-44)NH₂): 0.97
–	Cya²⁵, Leu²⁷bGRF(1-32)NH₂ [Compound 1]	100%	–	–	the potency of bGRF(1-44)NH₂ [1, 3]: 0.53; serum growth hormone (GH) response, difference from Leu²⁷ bGRF(1-32)NH₂ (meal-fed Holstein steers; [5]): No significant differences
47%	YADAIFTNSYRKVLGQLSARKLLQDILNRQQG-NH2 [Leu²⁷ bGRF(1-32)NH₂, reference compound]	122%	–	–	serum growth hormone (GH) response, difference from bGRF(1-44)NH₂ (meal-fed Holstein steers; 3nM/100 kg bodyweight, single iv injection, compared with bGRF(1-44)NH₂): No significant differences
